From ChEMBL document CHEMBL1255371, “Clonal spread of highly beta-lactam-resistant Streptococcus pneumoniae isolates in Taiwan” (2008) come the findings set out here.

In brackets after ≈: the same amount, converted by molar mass. Where only a bound is given, the exact number is not on record here.

For orientation: MIC50 means an inhibitory concentration at the 50% level, which refers to growth in some studies and to a panel of isolates in others. For orientation: MIC90 means the lowest concentration that inhibits either 90% of growth or 90% of the strains tested, depending on the study. A high value points to weaker potency. The term MIC denotes the least concentration at which growth counts as inhibited.

What all share (assay type): functional
In experiment [1] the test system is Streptococcus pneumoniae. The experiment is described as follows: Antimicrobial activity against beta-lactam resistant Streptococcus pneumoniae clinical isolate by broth dilution method.
The test system of experiment [2] is Streptococcus pneumoniae. In words: Antimicrobial activity against Streptococcus pneumoniae isolated from patient with bacterial infection by broth dilution method. For orientation: Broth dilution looks for growth in wells or tubes with falling amounts of substance.
Experiment [3] deals with Streptococcus pneumoniae. The experiment is described as follows: Antimicrobial activity against Streptococcus pneumoniae isolated from cerebrospinal fluid of patient with bacterial infection by broth dilution method.
Experiment [4] has as its system Streptococcus pneumoniae. In words: Antimicrobial activity against Streptococcus pneumoniae in meningitis patients by broth dilution method.
Experiment [5] deals with Streptococcus pneumoniae. In words: Antimicrobial activity against Streptococcus pneumoniae in non-meningitis patients by broth dilution method.
In experiment [6] the test system is Streptococcus pneumoniae. The experiment is described as follows: Antimicrobial activity against Streptococcus pneumoniae isolated from meningitis patient assessed as percent susceptible isolates by CLSI method.
For experiment [7], the system named is Streptococcus pneumoniae. In words: Antimicrobial activity against Streptococcus pneumoniae isolated from meningitis patient assessed as percent resistant isolates by CLSI method.
In experiment [8] the test system is Streptococcus pneumoniae. The experiment is described as follows: Antimicrobial activity against Streptococcus pneumoniae isolated from non-meningitis patient assessed as percent susceptible isolates by CLSI method.
Experiment [9] concerns Streptococcus pneumoniae. The experiment is described as follows: Antimicrobial activity against Streptococcus pneumoniae isolated from non-meningitis patient assessed as percent resistant isolates by CLSI method.

For `CCCCCCCCCC(=O)N[C@@H](Cc1c[nH]c2ccccc12)C(=O)N[C@H](CC(N)=O)C(=O)N[C@@H](CC(=O)O)C(=O)N[C@@H]1C(=O)NCC(=O)N[C@@H](CCCN)C(=O)N[C@@H](CC(=O)O)C(=O)N[C@H](C)C(=O)N[C@@H](CC(=O)O)C(=O)NCC(=O)N[C@H](CO)C(=O)N[C@@H]([C@H](C)CC(=O)O)C(=O)N[C@@H](CC(=O)c2ccccc2N)C(=O)O[C@@H]1C`, in the experiment on Streptococcus pneumoniae [1], the MIC50 was found to be 0.06 µg/mL (≈ 0.037 µM) and the MIC90 was 0.06 µg/mL (≈ 0.037 µM).

`CO/N=C(\C(=O)N[C@@H]1C(=O)N2C(C(=O)O)=C(COC(C)=O)CS[C@H]12)c1csc(N)n1` [CEFOTAXIME] registered an MIC50 against Streptococcus pneumoniae [1] of 0.5 µg/mL (≈ 1.1 µM). Moreover, the MIC90 against Streptococcus pneumoniae [1] was determined as 1 µg/mL (≈ 2.2 µM). Further, the MIC against Streptococcus pneumoniae [2] is at least 2 µg/mL; against Streptococcus pneumoniae [3], 1 µg/mL (≈ 2.2 µM); with Streptococcus pneumoniae [4], 1 µg/mL (≈ 2.2 µM); with Streptococcus pneumoniae [5], under 2 µg/mL. Further, the Activity in the experiment on Streptococcus pneumoniae [6] is 58.5%; in the experiment with Streptococcus pneumoniae [7], 6.9%; in the experiment on Streptococcus pneumoniae [8], 93.1%; in the experiment on Streptococcus pneumoniae [9] it was 1.4%.

Turning to `Nc1nc(/C(=N/O)C(=O)N[C@@H]2C(=O)N3C(C(=O)O)=C(/C=C4\CCN([C@@H]5CCNC5)C4=O)CS[C@H]23)ns1` [CEFTOBIPROLE], in the experiment with Streptococcus pneumoniae [1], the MIC50 came to 0.25 µg/mL (≈ 0.468 µM) and the MIC90 is 0.5 µg/mL (≈ 0.935 µM).

As to `CC[C@H]1OC(=O)[C@H](C)[C@@H](O[C@H]2C[C@@](C)(OC)[C@@H](O)[C@H](C)O2)[C@H](C)[C@@H](O[C@@H]2O[C@H](C)C[C@H](N(C)C)[C@H]2O)[C@](C)(O)C[C@@H](C)C(=O)[C@H](C)[C@@H](O)[C@]1(C)O` [ERYTHROMYCIN], in the experiment on Streptococcus pneumoniae [1], the MIC50 was over 32 µg/mL and the MIC90 is over 32 µg/mL. The Activity with Streptococcus pneumoniae [6] came to 6.9%. Also, in the experiment with Streptococcus pneumoniae [7], the Activity is given as 90.9%.

Take `CO/N=C1\CN(c2nc3c(cc2F)c(=O)c(C(=O)O)cn3C2CC2)CC1CN` (stereo unspecified) [GEMIFLOXACIN]: in the experiment with Streptococcus pneumoniae [1], the MIC is at most 0.03 µg/mL, the MIC50 was at most 0.03 µg/mL and the MIC90 is at most 0.03 µg/mL. Moreover, the Activity with Streptococcus pneumoniae [6] worked out at 98.9%. The Activity in the experiment with Streptococcus pneumoniae [7] came to 1.1%.

In the experiment with Streptococcus pneumoniae [1], `C[C@H]1COc2c(N3CCN(C)CC3)c(F)cc3c(=O)c(C(=O)O)cn1c23.C[C@H]1COc2c(N3CCN(C)CC3)c(F)cc3c(=O)c(C(=O)O)cn1c23.O` [LEVOFLOXACIN] displayed an MIC50 of 1 µg/mL and an MIC90 of 1 µg/mL. The Activity in the experiment with Streptococcus pneumoniae [6] amounted to 98.1%. Besides, in the experiment with Streptococcus pneumoniae [7], the Activity is given as 1.9%.

`CC1(C)S[C@@H]2[C@H](NC(=O)Cc3ccccc3)C(=O)N2[C@H]1C(=O)O` [PENICILLIN G] registered an MIC50 in the experiment on Streptococcus pneumoniae [1] of 1 µg/mL (≈ 2.99 µM). The compound further yielded an MIC90 against Streptococcus pneumoniae [1] of 2 µg/mL (≈ 5.98 µM). The MIC against Streptococcus pneumoniae [2] was at least 0.1 µg/mL; in the experiment with Streptococcus pneumoniae [4], at least 0.1 µg/mL; in the experiment on Streptococcus pneumoniae [5], at least 4 µg/mL. Further, the Activity with Streptococcus pneumoniae [6] turned out to be 16.8%; with Streptococcus pneumoniae [7], 44.5%.

On to `CN(C)c1cc(NC(=O)CNC(C)(C)C)c(O)c2c1C[C@H]1C[C@H]3[C@H](N(C)C)C(O)=C(C(N)=O)C(=O)[C@@]3(O)C(O)=C1C2=O` [TIGECYCLINE], for which, in the experiment with Streptococcus pneumoniae [1], the MIC is at most 0.015 µg/mL, the MIC50 is at most 0.015 µg/mL and the MIC90 stood at 0.03 µg/mL (≈ 0.0512 µM).

In the experiment with Streptococcus pneumoniae [1], `CN[C@H](CC(C)C)C(=O)N[C@H]1C(=O)N[C@@H](CC(N)=O)C(=O)N[C@H]2C(=O)N[C@H]3C(=O)N[C@H](C(=O)N[C@H](C(=O)O)c4cc(O)cc(O)c4-c4cc3ccc4O)[C@H](O)c3ccc(c(Cl)c3)Oc3cc2cc(c3O[C@@H]2O[C@H](CO)[C@@H](O)[C@H](O)[C@H]2O[C@H]2C[C@](C)(N)[C@H](O)[C@H](C)O2)Oc2ccc(cc2Cl)[C@H]1O` [VANCOMYCIN] yielded an MIC50 of 0.25 µg/mL (≈ 0.173 µM). The compound also displayed an MIC90 in the experiment on Streptococcus pneumoniae [1] of 0.5 µg/mL (≈ 0.345 µM). For the same compound, the Activity came to 100% in the experiment with Streptococcus pneumoniae [6] and 0% in the experiment on Streptococcus pneumoniae [7].
